Tests used:
Format in all cases: in vivo
[1] = system: MPTP mice; assay: Spontaneous motor activity (actimetry) in MPTP mice; conditions: for spontaneous locomotor activity: 7 days
Protocol: (§1) Five-month-old male C57B1/6J mice (Elevage Janvier, Le Genest St Isle, France) weighing 28-30 g were used. The mice received four intraperitoneal injections (with 2 h intervals) of saline solution containing 0 (“Saline mice”) or 20 mg/kg of MPTP (“MPTP mice”) (Sigma Aldrich, St Louis, Mo. USA). Saline or MPTP were administrated at day 0 (D0), the central continuous dopamine infusion or peripheral L-dopa treatment were delivered from 7th to the 14th day (D7 to D14), and then spontaneous locomotor measurement and sacrifice were performed at D14.
After 7 days of treatment (i.p. L-dopa or i.c.v dopamine), spontaneous motor activity was recorded in an actimeter (Panlab, Barcelona, Spain) during 10 minutes. The apparatus was a 45×45×35 cm transparent Plexiglas enclosure equipped with two frames of infrared beams. This apparatus allowed horizontal motor activity (distance traveled, speed, movement type) and rearing behavior to be measured based on infrared beams obstructions. Chosen parameters were collected by Actitrack software (Panlab, Barcelona, Spain).

[2] = system: striatum of MPTP mice; assay: Neurotransmitter content in striatum of MPTP mice (HPLC)
Protocol: as §1

[3] = system: TH-ir neurons in SNpc; assay: TH-ir neurons counting in SNpc of MPTP mice
Protocol: as §1
The brains were removed and, after a post-fixation process, were cryoprotected and frozen. […]
The number of TH-ir neurons (“Tyrosine Hydroxylase-Immunoreactive») in the SNpc was assessed by counting TH-ir neurons of the left and right hemisphere in every 4th section of the SNpc of all experimental groups. […] For the unbiased quantification, a line was drawn around the SNpc of each section. […] Cells were counted with a 40× using a Nikon Eclipse E600 microscope (Tokyo, Japan). […] As no difference between left and right SNps was found, TH-ir counted neurons of both sides were pooled and for each animal, a sum of neurons counted in each section was calculated. […]

[4] = system: TH-ir terminals in dorsal striatum; assay: TH-ir optical density in dorsal striatum of MPTP mice; conditions: MPTP administration
[5] = peripheral L-dopa 50 and 100 mg/day

SMILES: N[C@@H](Cc1ccc(O)c(O)c1)C(=O)O [L-dopa, L-3,4-dihydroxyphenylalanine]
- abnormal behaviors ([1]; high doses of L-Dopa): abnormal behaviors such as dyskinesia
- spontaneous locomotor activity ([1]; peripheral L-dopa 50 mg/kg/day): restored
- spontaneous locomotor activity ([1]; peripheral L-dopa 25 and 100 mg/day): no effect
- dopaminergic neurotransmission in striatum ([2]; peripheral L-dopa 25 mg/day): no effect on dopaminergic neurotransmission
- serotonin and noradrenalin in both striatum ([2]; peripheral L-dopa 25 mg/day): increase in serotonin and noradrenalin in both striatum
- dopamine and metabolites in both striatum [2, 5]: significant increase in dopamine and metabolites in both striatum
- serotonin and noradrenalin content [2, 5]: no supplemental effect on serotonin and noradrenalin content
- effect on TH-ir neurons in SNpc ([3]; L-dopa treatment, 7 days): no significant effect

SMILES: CN1CC=C(c2ccccc2)CC1 [MPTP, 1-methyl-4-phenyl-1,2,3,6-tetrahydropyridine]
- reduction in DOPAC content in each striatum ([2]; MPTP intoxication): 70-80%
- reduction in HIA content in each striatum ([2]; MPTP intoxication): 20-50%
- reduction in HVA content in each striatum ([2]; MPTP intoxication): 60-70%
- reduction in noradrenalin content in each striatum ([2]; MPTP intoxication): 35-50%
- reduction in serotonin content in each striatum ([2]; MPTP intoxication): 40-40%
- reduction in dopamine content in each striatum ([2]; MPTP intoxication, 4 x 20 mg/kg i.p.): 85-90%
- loss of TH-expressing neurons in the SNpc compared to saline-injected mice ([3]; MPTP administration): 44.3%
- loss of TH-expressing neurons in the striatum compared to saline-injected mice [4]: 38.2%

Reference: patent publication US10105326B2, “Pharmaceutical solution comprising dopamine for use in treating parkinson's disease” (CENTRE HOSPITALIER REGIONAL ET UNIVERSITAIRE DE LILLE (CHRU), priority 2014, dated 2018)
